Test results published in article PMC11149917, “Translational and Therapeutic Evaluation of RAS-GTP Inhibition by RMC-6236 in RAS-Driven Cancers” (Cancer Discovery, 2024).
Where “and” joins values, the source holds several entries; their conditions need not be identical. Equal entries are not always repeated. Where two headings read alike, the source gives them in different places.

Assay: Mouse blood and tissue PK (LC/MS-MS)
Assay type: in vivo
Details: for AUC(0-t): read-out: Blood AUClast; for half-life: read-out: Blood t1/2 (converted); for concentration at 4 h: read-out: RMC-6236 (nM) Tumor
Experimental: For single-dose PKPD study, mice were randomized and assigned into groups (n = 3/dose/time point). […] Blood and tissues, including the tumor, brain, colon, ear skin, and muscle, were harvested at indicated time points. […] The whole blood, tumor, brain, colon, and ear skin concentrations of RMC-6236 were determined using liquid chromatography–tandem mass spectrometry (LC/MS-MS) methods. […] After thorough mixing and centrifugation, the supernatant was diluted with water or directly analyzed on a Sciex 5500 or Sciex 6500+ triple quadrupole mass spectrometer equipped with an ACQUITY or Shimadzu UPLC system. […] Bioanalysis on blood and tissue samples from xenograft models was run at Pharmaron and Wuxi AppTec. Concentrations reported as below the quantification limit were treated as zero for PK analysis. PK parameters were calculated by noncompartmental analysis of the concentration–time profiles using Phoenix WinNonLin (version 8.3 Certara). Apparent terminal elimination half-life (t1/2) values were calculated as ln(2)/k, where k represents the terminal elimination rate constant. Area under the concentration–time curve (AUC) values were estimated using a linear trapezoidal method. AUClast values were calculated from the dosing time to the last quantifiable concentration. Maximum concentration (Cmax) was recorded as observed.

[1] = Balb/c nude, mouse, whole blood, po, 25 mg/kg, LU99-luc IC (25 mg/kg), single dose
[2] = Balb/c nude, mouse, whole blood, sc, 25 mg/kg, LU99-luc SC (25 mg/kg), single dose
[3] = Capan-2 (10 mg/kg), single dose
[4] = Capan-2 (25 mg/kg), single dose
[5] = LU99-luc IC #2 (25 mg/kg), adjacent normal brain
[6] = LU99-luc IC #2 (25 mg/kg), intracranial tumor
[7] = LU99-luc IC (25 mg/kg), intracranial tumor
[8] = LU99-luc SC (25 mg/kg), subcutaneous xenograft tumor
[9] = NCI-H358 (25 mg/kg), single dose
[10] = NCI-H441 #2 (25 mg/kg), QD x 10 days
[11] = NCI-H441 (3 mg/kg), single dose
[12] = NCI-H441 (10 mg/kg), single dose
[13] = NCI-H441 (25 mg/kg), single dose

## CCn1c(-c2cc(N3CCN(C)CC3)cnc2[C@H](C)OC)c2c3cc(ccc31)-c1csc(n1)C[C@H](NC(=O)[C@H]1C[C@@H]1C)C(=O)N1CCC[C@H](N1)C(=O)OCC(C)(C)C2 [RMC-6236]
[1]
  AUC(0-t): 16700 ng·h/mL
  half-life: 3.81 h
[2]
  Cmax: 1650 ng/mL
  AUC(0-t): 18600 ng·h/mL
  half-life: 3.13 h
Capan-2 (3 mg/kg), single dose
  Tumor AUClast: 5138 ng·h/mL
  Tumor Cmax: 218 ng/mL
[3]
  Tumor AUClast: 23425 ng·h/mL
  Tumor Cmax: 906 ng/mL
[4]
  Tumor AUClast: 66696 ng·h/mL
  Tumor Cmax: 3000 ng/mL
Capan-2, study Capan-2 #3_PHA 2020, 0.3 mg/kg, 2h
  concentration at 4 h: 21.6 nM and 12.8 nM
Capan-2, study Capan-2 #3_PHA 2020, 0.3 mg/kg, 8h
  concentration at 4 h: 15.8 nM and 20.9 nM
Capan-2, study Capan-2 #3_PHA 2020, 0.3 mg/kg, 24h
  concentration at 4 h: 7.5 nM and 9 nM
Capan-2, study Capan-2 #3_PHA 2020, 0.3 mg/kg, 48h
  RMC-6236 (nM) Tumor: BQL
Capan-2, study Capan-2 #3_PHA 2020, 3 mg/kg, 2h
  concentration at 4 h: 206 nM and 213 nM
Capan-2, study Capan-2 #3_PHA 2020, 3 mg/kg, 8h
  concentration at 4 h: 232 nM and 155 nM
Capan-2, study Capan-2 #3_PHA 2020, 3 mg/kg, 24h
  concentration at 4 h: 93 nM and 106 nM
Capan-2, study Capan-2 #3_PHA 2020, 3 mg/kg, 48h
  concentration at 4 h: 29 nM and 32 nM
Capan-2, study Capan-2 #3_PHA 2020, 10 mg/kg, 2h
  concentration at 4 h: 735 nM and 868 nM
Capan-2, study Capan-2 #3_PHA 2020, 10 mg/kg, 8h
  concentration at 4 h: 784 nM and 1189 nM
Capan-2, study Capan-2 #3_PHA 2020, 10 mg/kg, 24h
  concentration at 4 h: 388 nM and 425 nM
Capan-2, study Capan-2 #3_PHA 2020, 10 mg/kg, 48h
  concentration at 4 h: 127 nM and 106 nM
Capan-2, study Capan-2 #3_PHA 2020, 25 mg/kg, 2h
  concentration at 4 h: 1563 nM and 2949 nM
Capan-2, study Capan-2 #3_PHA 2020, 25 mg/kg, 8h
  concentration at 4 h: 2249 nM and 3216 nM
Capan-2, study Capan-2 #3_PHA 2020, 25 mg/kg, 24h
  concentration at 4 h: 1455 nM and 1672 nM
Capan-2, study Capan-2 #3_PHA 2020, 40 mg/kg, 2h
  concentration at 4 h: 6510 nM and 4764 nM
Capan-2, study Capan-2 #3_PHA 2020, 40 mg/kg, 8h
  concentration at 4 h: 4542 nM and 4547 nM
Capan-2, study Capan-2 #3_PHA 2020, 40 mg/kg, 24h
  concentration at 4 h: 2254 nM
Capan-2, study Capan-2 #3_PHA 2023, 3 mg/kg, 2h
  concentration at 4 h: 210.835 nM and 145.489 nM
Capan-2, study Capan-2 #3_PHA 2023, 3 mg/kg, 4h
  concentration at 4 h: 272.483 nM and 245.358 nM
Capan-2, study Capan-2 #3_PHA 2023, 3 mg/kg, 8h
  concentration at 4 h: 266.318 nM and 212.068 nM
Capan-2, study Capan-2 #3_PHA 2023, 3 mg/kg, 24h
  concentration at 4 h: 131.926 nM and 103.198 nM
Capan-2, study Capan-2 #3_PHA 2023, 3 mg/kg, 48h
  concentration at 4 h: 42.167 nM and 42.4136 nM
Capan-2, study Capan-2 #3_PHA 2023, 10 mg/kg, 2h
  concentration at 4 h: 596.75 nM and 1028.28 nM
Capan-2, study Capan-2 #3_PHA 2023, 10 mg/kg, 4h
  concentration at 4 h: 1166.37 nM and 954.307 nM
Capan-2, study Capan-2 #3_PHA 2023, 10 mg/kg, 8h
  concentration at 4 h: 1105.96 nM and 773.062 nM
Capan-2, study Capan-2 #3_PHA 2023, 10 mg/kg, 24h
  concentration at 4 h: 401.943 nM and 517.841 nM
Capan-2, study Capan-2 #3_PHA 2023, 10 mg/kg, 48h
  concentration at 4 h: 125.761 nM and 157.818 nM
Capan-2, study Capan-2 #3_PHA 2023, 25 mg/kg, 2h
  concentration at 4 h: 1750.8 nM and 1824.77 nM
Capan-2, study Capan-2 #3_PHA 2023, 25 mg/kg, 4h
  concentration at 4 h: 5030.45 nM and 3020.74 nM
Capan-2, study Capan-2 #3_PHA 2023, 25 mg/kg, 8h
  concentration at 4 h: 2379.6 nM and 2700.17 nM
Capan-2, study Capan-2 #3_PHA 2023, 25 mg/kg, 24h
  concentration at 4 h: 1997.39 nM and 1442.56 nM
Capan-2, study Capan-2 #3_PHA 2023, 50 mg/kg, 2h
  concentration at 4 h: 5178.41 nM and 4956.48 nM
Capan-2, study Capan-2 #3_PHA 2023, 50 mg/kg, 4h
  concentration at 4 h: 6411.36 nM and 6731.93 nM
Capan-2, study Capan-2 #3_PHA 2023, 50 mg/kg, 8h
  concentration at 4 h: 6251.08 nM and 3945.45 nM
Capan-2, study Capan-2 #3_PHA 2023, 50 mg/kg, 24h
  concentration at 4 h: 2996.08 nM and 1775.45 nM
Capan-2, study Capan-2 #3_PHA 2023, 100 mg/kg, 2h
  concentration at 4 h: 9025.23 nM and 8877.27 nM
Capan-2, study Capan-2 #3_PHA 2023, 100 mg/kg, 4h
  concentration at 4 h: 16521.6 nM and 11417.2 nM
Capan-2, study Capan-2 #3_PHA 2023, 100 mg/kg, 8h
  concentration at 4 h: 14795.5 nM and 9185.51 nM
Capan-2, study Capan-2 #3_PHA 2023, 100 mg/kg, 24h
  concentration at 4 h: 4216.7 nM and 3328.98 nM
Capan-2, study Capan-2 #3_PHA 2023, 100 mg/kg, 48h
  concentration at 4 h: 1124.45 nM and 1331.59 nM
HPAC #3, 50 mg/kg, 24h, individual animals, 50 mg/kg
  concentration at 4 h: 3354 nM
HPAC #3, 50 mg/kg, 48h, individual animals, 50 mg/kg
  concentration at 4 h: 1332 nM and 1603 nM
HPAC #4, 3 mg/kg, 4h, individual animals, 3 mg/kg
  concentration at 4 h: 108 nM and 297 nM and 238 nM
HPAC #4, 3 mg/kg, 8h, individual animals, 3 mg/kg
  concentration at 4 h: 335 nM and 387 nM
HPAC #4, 3 mg/kg, 24h, individual animals, 3 mg/kg
  concentration at 4 h: 207 nM and 164 nM
HPAC #4, 3 mg/kg, 48h, individual animals
  RMC-6236 (nM) Tumor: BQL
HPAC #4, 3 mg/kg, 48h, individual animals, 3 mg/kg
  concentration at 4 h: 29.3 nM
HPAC #4, 10 mg/kg, 4h, individual animals, 10 mg/kg
  concentration at 4 h: 957 nM and 831 nM
HPAC #4, 10 mg/kg, 8h, individual animals, 10 mg/kg
  concentration at 4 h: 1566 nM and 1418 nM
HPAC #4, 10 mg/kg, 24h, individual animals, 10 mg/kg
  concentration at 4 h: 386 nM and 374 nM
HPAC #4, 10 mg/kg, 48h, individual animals, 10 mg/kg
  concentration at 4 h: 210 nM and 212 nM
HPAC #4, 25 mg/kg, 4h, individual animals, 25 mg/kg
  concentration at 4 h: 2897 nM and 4130 nM
HPAC #11, 0.3 mg/kg, 4h, individual animals
  RMC-6236 (nM) Tumor: BQL
HPAC #11, 0.3 mg/kg, 8h, individual animals
  RMC-6236 (nM) Tumor: BQL
HPAC #11, 0.3 mg/kg, 24h, individual animals
  RMC-6236 (nM) Tumor: BQL
HPAC #11, 0.3 mg/kg, 48h, individual animals
  RMC-6236 (nM) Tumor: BQL
HPAC #11, 1 mg/kg, 24h, individual animals
  RMC-6236 (nM) Tumor: BQL
HPAC #11, 1 mg/kg, 48h, individual animals
  RMC-6236 (nM) Tumor: BQL
HPAC (25 mg/kg), single dose
  Tumor AUClast: 79219 ng·h/mL
  Tumor Cmax: 3007 ng/mL
KP-4 (25 mg/kg), single dose
  Tumor AUClast: 79463 ng·h/mL
  Tumor Cmax: 3582 ng/mL
[5]
  Brain AUClast: 396 ng·h/mL
  Brain Cmax: 63.2 ng/mL
[6]
  Tumor AUClast: 2537 ng·h/mL
  Tumor Cmax: 139 ng/mL
[7]
  Tumor AUClast: 2004 ng·h/mL
  Tumor Cmax: 142 ng/mL
[8]
  Tumor AUClast (h × ng/mL): 75128 #2 h × ng/mL
  Tumor Cmax (ng/mL): 2367 #2 ng/mL
[9]
  Tumor AUClast: 51307 ng·h/mL
  Tumor Cmax: 3083 ng/mL
[10]
  Tumor AUClast: 32762 ng·h/mL
  Tumor Cmax: 1527 ng/mL
[11]
  Tumor AUClast: 6321 ng·h/mL
  Tumor Cmax: 253 ng/mL
[12]
  Tumor AUClast: 17526 ng·h/mL
  Tumor Cmax: 821 ng/mL
[13]
  Tumor AUClast: 55019 ng·h/mL
  Tumor Cmax: 2083 ng/mL
NCI-H441 xenograft tumor, study NCI-H441#10, 0.3 mg/kg, 48h
  RMC-6236 (nM) Tumor: BQL
NCI-H441 xenograft tumor, study NCI-H441#10, 1 mg/kg, 48h
  RMC-6236 (nM) Tumor: BQL
NCI-H441 xenograft tumor, study NCI-H441#13, 0.3 mg/kg, 24h
  RMC-6236 (nM) Tumor: BQL
